Results on three molecules are retold here after patent publication US20100190724A1, “USE OF MELANOCYTE-STIMULATING HORMONE RELEASE-INHIBITING FACTOR AS A THERAPEUTIC AGENT IN THE TREATMENT OF PSEUDOMONAS AERUGINOSA INFECTION” (priority 2007, published 2010).

Where a SMILES comes first, the peptide text is derived from it.

Usually viability stands for a per cent measure of how many cells are alive, often set against a control. What is called % inhibition is the change of the read-out against control, counted positive when it falls. A higher % inhibition goes with a strong effect.

One data set has as its system HIV-1IIB. Nature of the data set: HIV-1 antiviral assay (CPE reduction, MTS) in CEM-SS cells. As to conditions: peptide 10 micrograms per ml, 6 days post-infection. Type of data set: cell-based.
Another data set deals with CEM-SS cells. Nature of the data set: Cytotoxicity (MTS cell viability) in HIV-1 experiments. As to conditions: peptide 10 micrograms per ml, MTS.
A further data set concerns MRC-5 cells. Nature of the data set: Cytotoxicity testing in MRC-5 cells (CellTiter 96). It is filed as cell-based, human. As to conditions: 6 days incubation. As to the method:
(§1) The following day, peptide was added and tested in duplicates.

Another data set has as its system IL-2. Nature of the data set: Th1/Th2 cytokine profiling assay: IL-2. It is filed as cell-based, Balb/c mice. As to conditions: Ovalbumin-restimulated spleen cells; peptide 10 micrograms per ml; 72 hours.
The test system of a further data set is IFNγ. Nature of the data set: Th1/Th2 cytokine profiling assay: IFNγ. Type of data set: cell-based, Balb/c mice. As to conditions: Ovalbumin-restimulated spleen cells; peptide 10 micrograms per ml; 72 hours.
Data set [1] relates to hepatitis B virus (HBV) ayw strain. Nature of the data set: HBV replication assay in HepG2-2.2.15 cells (TaqMan PCR of secreted HBV DNA). Type of data set: cell-based. As to conditions: peptide 10 micrograms per ml, six days, HBV DNA by TaqMan PCR. How it is done: HepG2-2.2.15 is a stable cell line containing the hepatitis B virus (HBV) ayw strain genome (ATCC Cat. No. CRL-11997). Antiviral compounds blocking any late step of viral replication such as transcription, translation, pregenome encapsidation, reverse transcription, particle assembly and release can be identified and characterized using this cell line.
HepG2-2.2.15 cells were plated in 96-well microtiter plates. After 16-24 hours the confluent monolayer of HepG2-2.2.15 cells was washed and the medium was replaced with complete medium containing test peptide—10 micrograms per ml—in duplicate. […] Three days later the culture medium was replaced with fresh medium containing the peptide. Six days following the initial administration of the peptide, the cell culture supernatants was collected, treated with pronase and DNAse and then used in a real-time quantitative TaqMan PCR assay. The PCR-amplified HBV DNA was detected in real-time by monitoring increases in fluorescence signals that result from the exonucleolytic degradation of a quenched fluorescence probe molecule that hybridizes to the amplified HBV DNA. For each PCR amplification, a standard curve was simultaneously generated using dilutions of purified HBV DNA. Antiviral activity was calculated from the reduction in HBV DNA levels (% virus control). […]
In general terms: In qPCR the cycle at which signal appears reflects the starting amount.

For data set [2], the system named is A549 cells. Nature of the data set: Apoptosis prevention assay (C2 ceramide, Annexin-5). It is filed as cell-based, human. As to conditions: 30 min pretreatment with peptide 10 micrograms per ml, then C2 ceramide.
A short description of data set [3]: Cytotoxicity testing in MRC-5 cells (CellTiter 96). Type of data set: cell-based, human. As to conditions: human, 6 days incubation, read-out: % Cell viability. How it is done: as §1
In data set [4] the test system is Human Peripheral Blood Mononuclear Cells (PBMC). Nature of the data set: T cell proliferation assay (PHA, 3H-thymidine). As to conditions: peptide 10 micrograms per ml, 3H-thymidine incorporation. Type of data set: cell-based.
A short description of data set [5]: Cytotoxicity (dye uptake cell viability) in HBV assay. As to conditions: human, HepG2-2.2.15 cells, peptide 10 micrograms per ml. It is filed as cell-based. How it is done:
HepG2-2.2.15 cells were plated in 96-well microtiter plates. After 16-24 hours the confluent monolayer of HepG2-2.2.15 cells was washed and the medium was replaced with complete medium containing test peptide—10 micrograms per ml—in duplicate. Lamivudine (3TC) was used as the positive control, while media alone was added to the cells as a negative control (virus control). Three days later the culture medium was replaced with fresh medium containing the peptide. Six days following the initial administration of the peptide, the cell culture supernatants was collected, treated with pronase and DNAse and then used in a real-time quantitative TaqMan PCR assay. The PCR-amplified HBV DNA was detected in real-time by monitoring increases in fluorescence signals that result from the exonucleolytic degradation of a quenched fluorescence probe molecule that hybridizes to the amplified HBV DNA. For each PCR amplification, a standard curve was simultaneously generated using dilutions of purified HBV DNA. Antiviral activity was calculated from the reduction in HBV DNA levels (% virus control). A novel dye uptake assay was then employed to measure cell viability, which is used to calculate toxicity (% cell control).

Data set [6] concerns A549 cells. Nature of the data set: Propidium iodide cell cycle assay. It is filed as cell-based, human. As to conditions: peptide 10 micrograms per ml, 24 hours, FACS.
In data set [7] the test system is Human Peripheral Blood Mononuclear Cells (PBMC). Nature of the data set: B cell proliferation assay (SAC plus Interleukin-2, 3H-thymidine). Type of data set: cell-based. As to conditions: peptide 10 micrograms per ml, 3H-thymidine incorporation. For orientation: Uptake of a labelled nucleoside into DNA is a usual measure of proliferation.
A further data set concerns TNF-a. Nature of the data set: Th1/Th2 cytokine profiling assay: TNF-a. As to conditions: Ovalbumin-restimulated spleen cells; peptide 10 micrograms per ml; 72 hours. It is filed as cell-based, Balb/c mice.
The next data set concerns IL-4. Nature of the data set: Th1/Th2 cytokine profiling assay: IL-4. Type of data set: cell-based, Balb/c mice. As to conditions: Ovalbumin-restimulated spleen cells; peptide 10 micrograms per ml; 72 hours.
Another data set deals with TNF alpha. Nature of the data set: TNF alpha production assay in LPS-stimulated macrophages (ELISA). As to conditions: PBMC-derived macrophages, peptide 10 micrograms per ml, lipopolysaccharide 200 ng/ml, overnight. It is filed as cell-based, human. The source says:
Not stimulated macrophages served as negative background control.
(In an ELISA, binding on a coated surface is turned into a signal by an enzyme label.)

The subject of a further data set is Pseudomonas aeruginosa. It is filed as cell-based. As to conditions: 5 micrograms per ml.
For another data set, the system named is MRSA. It is filed as cell-based, Staphylococcus Aureus. As to conditions: 5 micrograms per ml.
In another data set the test system is IL-5. Nature of the data set: Th1/Th2 cytokine profiling assay: IL-5. As to conditions: Ovalbumin-restimulated spleen cells; peptide 10 micrograms per ml; 72 hours. It is filed as cell-based, Balb/c mice.
A further data set concerns Streptococcus pneumoniae. It is filed as cell-based. As to conditions: 5 micrograms per ml.
Data set [8] deals with Primary Human endothelial cells (HUVEC). Nature of the data set: Endothelial cell migration assay. Type of data set: cell-based. As to conditions: peptide 10 micrograms per ml, 22 hours.
The subject of another data set is HCMV strain AD169. Nature of the data set: HCMV plaque reduction assay in MRC-5 cells. As to conditions: peptide 10 micrograms per ml, 7-10 days. It is filed as cell-based, human cytomegalovirus. The source says:
Ganciclovir was used as positive control.

The test system of the next data set is HUVEC. Nature of the data set: Endothelial tube formation assay. As to conditions: peptide 10 micrograms per ml, 20 hours. Type of data set: cell-based, human. The source says:
Positive control was vehicle only.

The test system of the next data set is RAW 264.7 cells. Nature of the data set: Phagocytosis assay (Fluorescein-labeled Escherichia coli, flow cytometry). It is filed as cell-based, mouse. As to conditions: peptide 10 micrograms per ml, 30 min preincubation, 60 min ingestion.
In data set [9] the test system is A549 cells. Nature of the data set: Apoptosis induction assay (Annexin-5). Type of data set: cell-based, human. As to conditions: peptide 10 micrograms per ml, 24 hours.
Data set [10] in a line: Cytotoxicity (MTS cell viability) in HIV-1 experiments. As to conditions: human, CEM-SS cells.

As for `Cc1cn([C@H]2C[C@H](N=[N+]=[N-])[C@@H](CO)O2)c(=O)[nH]c1=O` [AZT, reference compound], the “% CPE reduction in HIV-1 infected CEM-SS cells” value in the data set with HIV-1IIB is recorded as 99%. Further, in the data set on CEM-SS cells, the “% Cell viability” value amounted to 97%.

Regarding `Nc1nc(O)c2ncn(COC(CO)CO)c2n1` [Ganciclovir, reference compound], in the data set on MRC-5 cells, the “% Cell viability” value came to 100%.

With `CC(C)C[C@H](NC(=O)[C@@H]1CCCN1)C(=O)NCC(N)=O` [MSHRIF, Pro-Leu-Gly-NH2] (H-Pro-Leu-Gly-NH2), the “IL-2 spleen cells (% of control)” value in the data set on IL-2 is 0.0 % of control. Further, the “IFNγ spleen cells; TH1 response (% of control)” value in the data set on IFNγ was 88.0 % of control. Further, the “% inhibition of HBV replication in HEP G2 cells” value in data set [1] was 10.9%. Moreover, in the data set on A549 cells [2], the “% prevention of ceramide induced apoptosis” value is recorded as 0.0%. For the same molecule, in [3], the viability at 144 h was 100%. In data set [4], the “% of PHA induced control” value came to 80.8%. The same molecule had a viability at 144 h, 10 micrograms per ml in data set [5] of 100%. In addition, in the data set with A549 cells [6], the “Cell cycle analysis G0/G1” value worked out at 56.9. Further, the “Cell cycle analysis G2/M” value in the data set with A549 cells [6] was determined as 11.7. In addition, the “Cell cycle analysis S” value in the data set with A549 cells [6] is given as 31.4. Also, the “% of SAC/IL2 induced control” value in data set [7] was 79.2%. The “TNF-a spleen cells; TH1 response (% of control)” value with TNF-a was 81.4 % of control. In addition, the “% CPE reduction in HIV-1 infected CEM-SS cells” value with HIV-1IIB came out at 0.0%. In the data set on IL-4, the “IL-4 spleen cells; TH2 response (% of control)” value is reported as 0.0 % of control. Besides, the “% of LPS induction” value in the data set on TNF alpha is on record as 88.2%. Further, the “% inhibition” value with Pseudomonas aeruginosa stood at 100.0%; in the data set on MRSA it was 0.0%; in the data set on Streptococcus pneumoniae it was 0.0%. In addition, the “IL-5 spleen cells; TH2 response (% of control)” value with IL-5 was 56.7 % of control. Besides, in data set [8], the “% inhibition of migration” value was −8%. In the data set with HCMV strain AD169, the “% plaque reduction” value came out at 0.0%. For the same molecule, the “% inhibition of tube formation” value with HUVEC is on record as 9.0%. Also, in the data set with RAW 264.7 cells, the “% of control phagocytosis” value was determined as 145.7%. For the same molecule, the “% of induction” value with A549 cells [9] worked out at 0.9%. Also, the viability at 10 micrograms per ml in [10] came out at 98.4%.
